The values that follow are results of earlier work, collected in article PMC9103764, “Pilot Study on Acute Effects of Pharmacological Intraperitoneal L-Homoarginine on Homeostasis of Lysine and Other Amino Acids in a Rat Model of Isoprenaline-Induced Takotsubo Cardiomyopathy” (International Journal of Molecular Sciences, 2022).

The test system of one series is serotonin receptor 4. The note with it: cited from earlier work.
Details of series [1]: method as in PMID 9127274. Particulars: rat; cited from earlier work.

As to `NCCCC[C@H](N)C(=O)O` [Lys, L-lysine], the “action at serotonin receptor 4” value in the series on serotonin receptor 4 is “partial serotonin receptor 4 antagonist”.

For the molecule `CC(C)NCC(O)c1ccc(O)c(O)c1` (centres unmarked) [isoprenaline], the elimination half-life in series [1] was 10 min.
